Format in all cases: cell-based
The target of assay [1] is T1, hGIPR (Homo sapiens, UniProt P48546).
T1 sequence (P48546 22-466): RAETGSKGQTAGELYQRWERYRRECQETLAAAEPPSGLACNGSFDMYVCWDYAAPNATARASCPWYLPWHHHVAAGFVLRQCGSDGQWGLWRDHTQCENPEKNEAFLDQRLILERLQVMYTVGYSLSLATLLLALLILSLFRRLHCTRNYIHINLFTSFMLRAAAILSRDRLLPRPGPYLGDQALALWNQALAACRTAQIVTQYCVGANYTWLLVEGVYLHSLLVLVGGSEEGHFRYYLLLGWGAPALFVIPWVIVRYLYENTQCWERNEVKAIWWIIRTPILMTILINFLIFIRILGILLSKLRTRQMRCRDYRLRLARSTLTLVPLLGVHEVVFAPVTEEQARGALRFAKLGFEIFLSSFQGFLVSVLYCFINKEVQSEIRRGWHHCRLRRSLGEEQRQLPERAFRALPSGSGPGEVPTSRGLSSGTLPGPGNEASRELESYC
Nature of the assay: Functional cAMP activity in the presence of 1% HSA. Conditions: read-out: cAMP Rel EC50, hGIPR.

Assay [2] deals with T2, hGLP-1R (Homo sapiens, UniProt P43220). Nature of the assay: Functional cAMP activity in the presence of 1% HSA. To be noted: read-out: cAMP Rel EC50, hGLP-1R.
T2 sequence (P43220 24-463): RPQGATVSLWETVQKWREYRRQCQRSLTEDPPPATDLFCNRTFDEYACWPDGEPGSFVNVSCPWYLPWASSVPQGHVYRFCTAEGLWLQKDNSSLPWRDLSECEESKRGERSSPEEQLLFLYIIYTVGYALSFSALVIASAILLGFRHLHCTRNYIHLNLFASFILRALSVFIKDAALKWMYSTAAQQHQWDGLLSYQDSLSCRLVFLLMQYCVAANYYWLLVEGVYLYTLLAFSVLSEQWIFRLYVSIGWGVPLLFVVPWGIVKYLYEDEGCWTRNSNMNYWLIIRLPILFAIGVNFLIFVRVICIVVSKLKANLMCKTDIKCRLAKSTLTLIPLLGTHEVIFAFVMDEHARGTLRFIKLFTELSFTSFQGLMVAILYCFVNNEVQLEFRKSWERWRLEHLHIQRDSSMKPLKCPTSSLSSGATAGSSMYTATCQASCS
Assay [3] concerns the target human GcgR (Homo sapiens, UniProt P47871). Nature of the assay: Functional cAMP activity in the presence of 1% HSA. To be noted: read-out: cAMP Rel EC50, hGcgR.
Assay [4] has as its target T1, hGIPR. Nature of the assay: Functional cAMP activation in the presence of 0.1% casein (no HSA). To be noted: read-out: Relative cAMP EC50, hGIPR.
Procedure: After a 30-minute incubation at 37° C., the resulting increase in intracellular cAMP is quantitatively determined using the CisBio CAMP Dynamic 2 HTRF Assay Kit (62AM4PEJ). Briefly, cAMP levels within the cell are detected by adding the cAMP-d2 conjugate in cell lysis buffer followed by the antibody anti-cAMP-Eu^3+-Cryptate, also in cell lysis buffer.
Intracellular cAMP levels are determined by extrapolation using a standard curve. Dose response curves of compounds are plotted as the percentage of stimulation normalized to minimum (buffer only) and maximum (maximum concentration of each control ligand) values and analyzed using a four parameter non-linear regression fit with a variable slope (Genedata Screener 13). EC50 is the concentration of compound causing half-maximal simulation in a dose response curve. Each relative EC50 value for the Geometric mean calculation is determined from a curve fitting.
Assay [5] concerns the target T2, hGLP-1R. The assay is described as above. To be noted: read-out: Relative cAMP EC50, hGLP-1R.
The target in assay [6] is hGcgR (Homo sapiens, UniProt P47871). The assay is described as above. Conditions: read-out: Relative cAMP EC50, hGcgR.
hGcgR, sequence (P47871 26-477): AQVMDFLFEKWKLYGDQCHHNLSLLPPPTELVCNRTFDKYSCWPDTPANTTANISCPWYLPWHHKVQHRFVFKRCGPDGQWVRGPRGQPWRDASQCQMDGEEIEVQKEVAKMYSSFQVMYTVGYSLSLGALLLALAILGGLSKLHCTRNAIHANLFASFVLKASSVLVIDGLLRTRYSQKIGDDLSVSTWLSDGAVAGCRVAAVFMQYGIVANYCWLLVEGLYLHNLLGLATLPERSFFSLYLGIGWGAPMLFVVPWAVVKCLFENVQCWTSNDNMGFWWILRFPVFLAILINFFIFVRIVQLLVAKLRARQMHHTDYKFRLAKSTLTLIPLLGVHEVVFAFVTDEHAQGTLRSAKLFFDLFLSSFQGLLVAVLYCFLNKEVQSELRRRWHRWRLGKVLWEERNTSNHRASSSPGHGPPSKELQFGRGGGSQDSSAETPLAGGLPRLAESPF

Starred links: 1 amine or outer side, 2 acyl side, 3 side chain; linkers in the order of their positions; H or OH if unused. Non-standard residues stand in square brackets, D forms with d. Residues, ends and D or L forms follow the SMILES beside them. Groups on a side chain read outwards from the residue. *: point of attachment. C18 diacid = O=C(O)CCCCCCCCCCCCCCCCC(=O)*; αMePhe(2-F) = C[C@](N)(Cc1ccccc1F)C(=O)O; γGlu = O=C(O)[C@H](CCC(=O)[*:2])N[*:1]; αMeY = C[C@](N)(Cc1ccc(O)cc1)C(=O)O; 4Pal = N[C@@H](Cc1ccncc1)C(=O)O; αMeL = CC(C)C[C@](C)(N)C(=O)O; αMeS = C[C@](N)(CO)C(=O)O; Orn = NCCC[C@H](N)C(=O)O; AEEA = NCCOCCOCC(=O)O; Aib = CC(C)(N)C(=O)O
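For Relative cAMP EC50, hGIPR in this document: intracellular cAMP rise after 30 min at 37 °C read by HTRF against a standard curve, scaled between buffer alone (0%) and top control ligand concentration (100%), four-parameter fit.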
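For Relative cAMP EC50, hGLP-1R in this document: intracellular cAMP rise after 30 min at 37 °C read by HTRF, normalized between buffer only (0%) and maximal control ligand (100%), four-parameter variable-slope fit.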
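For Relative cAMP EC50, hGcgR in this document: intracellular cAMP rise after 30 min at 37 °C, read by HTRF against a cAMP standard curve, scaled from buffer only (0%) to maximal control ligand response (100%).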

human GcgR, sequence (P47871 26-477): as above

Usually EC50 stands for the midpoint of the concentration-response curve. Take `CC[C@H](C)[C@H](NC(=O)[C@H](Cc1ccccc1)NC(=O)[C@H](C)NC(=O)C(C)(C)NC(=O)[C@H](CCC(N)=O)NC(=O)[C@H](C)NC(=O)[C@H](CCCCNC(=O)CC[C@H](NC(=O)CC[C@H](NC(=O)CCCCCCCCCCCCCCCCC(=O)O)C(=O)O)C(=O)O)NC(=O)[C@H](CCCCN)NC(=O)[C@H](CC(=O)O)NC(=O)[C@H](CC(C)C)NC(=O)[C@](C)(CC(C)C)NC(=O)[C@@H](NC(=O)[C@H](CO)NC(=O)[C@H](Cc1ccncc1)NC(=O)[C@H](CC(=O)O)NC(=O)[C@H](CO)NC(=O)[C@@H](NC(=O)[C@](C)(Cc1ccccc1F)NC(=O)[C@@H](NC(=O)CNC(=O)[C@H](CCC(N)=O)NC(=O)C(C)(C)NC(=O)[C@@H](N)Cc1ccc(O)cc1)[C@@H](C)O)[C@@H](C)O)[C@@H](C)CC)C(=O)N[C@@H](CCC(=O)O)C(=O)N[C@@H](Cc1ccc(O)cc1)C(=O)N[C@@H](CC(C)C)C(=O)N[C@@H](CCC(=O)O)C(=O)N[C@@H](CCC(=O)O)C(=O)NCC(=O)NCC(=O)N1CCC[C@H]1C(=O)N[C@@H](CO)C(=O)N[C@@H](CO)C(=O)NCC(=O)N[C@@H](C)C(=O)N1CCC[C@H]1C(=O)N1CCC[C@H]1C(=O)N1CCC[C@H]1C(=O)N[C@@H](CO)C(N)=O` [Example 440] (H-Y[Aib]QGT[αMePhe(2-F)]TSD[4Pal]SI[αMeL]LDKK([γGlu-γGlu-C18 diacid])AQ[Aib]AFIEYLEEGGPSSGAPPPS-NH2): the concentration for a half-maximal effect (EC50) in assay [1] came to 1.81 nM; in assay [2], 27.4 nM; in assay [3], 830 nM; in assay [4], 0.0226 nM; in assay [5] it was 0.467 nM; in assay [6], 7.14 nM.

Regarding `CC[C@H](C)[C@H](NC(=O)[C@H](Cc1ccccc1)NC(=O)[C@H](C)NC(=O)C(C)(C)NC(=O)[C@H](CCC(N)=O)NC(=O)[C@H](C)NC(=O)[C@H](CCCCNC(=O)CC[C@H](NC(=O)CC[C@H](NC(=O)CCCCCCCCCCCCCCCCC(=O)O)C(=O)O)C(=O)O)NC(=O)[C@H](CCCN)NC(=O)[C@H](CC(=O)O)NC(=O)[C@H](CC(C)C)NC(=O)[C@](C)(CC(C)C)NC(=O)[C@@H](NC(=O)[C@H](CO)NC(=O)[C@H](Cc1ccncc1)NC(=O)[C@H](CC(=O)O)NC(=O)[C@H](CO)NC(=O)[C@@H](NC(=O)[C@](C)(Cc1ccccc1F)NC(=O)[C@@H](NC(=O)CNC(=O)[C@H](CCC(N)=O)NC(=O)C(C)(C)NC(=O)[C@@H](N)Cc1ccc(O)cc1)[C@@H](C)O)[C@@H](C)O)[C@@H](C)CC)C(=O)N[C@@H](CCC(=O)O)C(=O)N[C@@H](Cc1ccc(O)cc1)C(=O)N[C@@H](CC(C)C)C(=O)N[C@@H](CCC(=O)O)C(=O)N[C@@H](CCC(=O)O)C(=O)NCC(=O)NCC(=O)N1CCC[C@H]1C(=O)N[C@@H](CO)C(=O)N[C@@H](CO)C(=O)NCC(=O)N[C@@H](C)C(=O)N1CCC[C@H]1C(=O)N1CCC[C@H]1C(=O)N1CCC[C@H]1C(=O)N[C@@H](CO)C(N)=O` [Example 441] (H-Y[Aib]QGT[αMePhe(2-F)]TSD[4Pal]SI[αMeL]LD[Orn]K([γGlu-γGlu-C18 diacid])AQ[Aib]AFIEYLEEGGPSSGAPPPS-NH2), the concentration for a half-maximal effect (EC50) in assay [1] was found to be 1.96 nM; in assay [2] it was 24.7 nM; in assay [3], 855 nM; in assay [4] it was 0.0239 nM; in assay [5] it was 0.365 nM; in assay [6], 8 nM.

For `CC[C@H](C)[C@H](NC(=O)[C@H](Cc1ccccc1)NC(=O)[C@H](C)NC(=O)C(C)(C)NC(=O)[C@H](CCC(N)=O)NC(=O)[C@H](C)NC(=O)[C@H](CCCCNC(=O)COCCOCCNC(=O)CC[C@H](NC(=O)CCCCCCCCCCCCCCCCC(=O)O)C(=O)O)NC(=O)[C@H](CCCCN)NC(=O)[C@H](CC(=O)O)NC(=O)[C@H](CC(C)C)NC(=O)[C@](C)(CC(C)C)NC(=O)[C@@H](NC(=O)[C@H](CO)NC(=O)[C@H](Cc1ccncc1)NC(=O)[C@H](CC(=O)O)NC(=O)[C@H](CO)NC(=O)[C@@H](NC(=O)[C@](C)(Cc1ccccc1F)NC(=O)[C@@H](NC(=O)CNC(=O)[C@H](CCC(N)=O)NC(=O)C(C)(C)NC(=O)[C@@H](N)Cc1ccc(O)cc1)[C@@H](C)O)[C@@H](C)O)[C@@H](C)CC)C(=O)N[C@@H](CCC(=O)O)C(=O)N[C@@H](Cc1ccc(O)cc1)C(=O)N[C@@H](CC(C)C)C(=O)N[C@@H](CCC(=O)O)C(=O)N[C@@H](CCC(=O)O)C(=O)NCC(=O)NCC(=O)N1CCC[C@H]1C(=O)N[C@@H](CO)C(=O)N[C@@H](CO)C(=O)NCC(=O)N[C@@H](CCC(=O)O)C(=O)N1CCC[C@H]1C(=O)N1CCC[C@H]1C(=O)N1CCC[C@H]1C(=O)N[C@@H](CO)C(N)=O` [Example 442] (H-Y[Aib]QGT[αMePhe(2-F)]TSD[4Pal]SI[αMeL]LDKK([AEEA-γGlu-C18 diacid])AQ[Aib]AFIEYLEEGGPSSGEPPPS-NH2; N-terminus assumed), the EC50 in assay [1] came to 1.81 nM; in assay [2], 23.9 nM; in assay [3], 342 nM; in assay [4], 0.0237 nM; in assay [5], 0.267 nM; in assay [6], 5.66 nM.

On to `CC[C@H](C)[C@H](NC(=O)[C@H](Cc1ccccc1)NC(=O)[C@H](C)NC(=O)C(C)(C)NC(=O)[C@H](CCC(N)=O)NC(=O)[C@H](C)NC(=O)[C@H](CCCCNC(=O)COCCOCCNC(=O)CC[C@H](NC(=O)CCCCCCCCCCCCCCCCC(=O)O)C(=O)O)NC(=O)[C@H](CCCCN)NC(=O)[C@H](CC(=O)O)NC(=O)[C@H](CC(C)C)NC(=O)[C@](C)(CC(C)C)NC(=O)[C@@H](NC(=O)[C@H](CO)NC(=O)[C@H](Cc1ccncc1)NC(=O)[C@H](CC(=O)O)NC(=O)[C@H](CO)NC(=O)[C@@H](NC(=O)[C@](C)(Cc1ccccc1F)NC(=O)[C@@H](NC(=O)CNC(=O)[C@H](CCC(N)=O)NC(=O)C(C)(C)NC(=O)[C@@H](N)Cc1ccc(O)cc1)[C@@H](C)O)[C@@H](C)O)[C@@H](C)CC)C(=O)N[C@@H](CCC(=O)O)C(=O)N[C@@H](Cc1ccc(O)cc1)C(=O)N[C@@H](CC(C)C)C(=O)N[C@@H](CCC(=O)O)C(=O)N[C@@H](CCC(=O)O)C(=O)NCC(=O)NCC(=O)N1CCC[C@H]1C(=O)N[C@@H](CO)C(=O)N[C@@H](CO)C(=O)NCC(=O)N[C@@H](C)C(=O)N1CCC[C@H]1C(=O)N[C@@H](CCC(=O)O)C(=O)N1CCC[C@H]1C(=O)N[C@@H](CO)C(N)=O` [Example 443] (H-Y[Aib]QGT[αMePhe(2-F)]TSD[4Pal]SI[αMeL]LDKK([AEEA-γGlu-C18 diacid])AQ[Aib]AFIEYLEEGGPSSGAPEPS-NH2), for which the EC50 in assay [1] worked out at 1.57 nM; in assay [2], 34.3 nM; in assay [3], 265 nM; in assay [4], 0.0291 nM; in assay [5] it was 0.572 nM; in assay [6], 6.09 nM.

`CC[C@H](C)[C@H](NC(=O)[C@H](CCCN)NC(=O)[C@H](CC(=O)O)NC(=O)[C@H](CC(C)C)NC(=O)[C@](C)(CC(C)C)NC(=O)[C@@H](NC(=O)[C@](C)(CO)NC(=O)[C@H](Cc1ccncc1)NC(=O)[C@H](CC(=O)O)NC(=O)[C@H](CO)NC(=O)[C@@H](NC(=O)[C@](C)(Cc1ccccc1F)NC(=O)[C@@H](NC(=O)CNC(=O)[C@H](CCC(N)=O)NC(=O)C(C)(C)NC(=O)[C@@H](N)Cc1ccc(O)cc1)[C@@H](C)O)[C@@H](C)O)[C@@H](C)CC)C(=O)N[C@@H](C)C(=O)N[C@@H](CCC(N)=O)C(=O)NC(C)(C)C(=O)N[C@@H](CCCN)C(=O)N[C@@H](Cc1ccccc1)C(=O)N[C@H](C(=O)N[C@H](CCC(=O)O)C(=O)N[C@@](C)(Cc1ccc(O)cc1)C(=O)N[C@@H](CC(C)C)C(=O)N[C@H](C(=O)N[C@@H](CCCCNC(=O)COCCOCCNC(=O)CC[C@H](NC(=O)CCCCCCCCCCCCCCCCC(=O)O)C(=O)O)C(=O)NCC(=O)NCC(=O)N1CCC[C@H]1C(=O)N[C@@H](CO)C(=O)N[C@@H](CO)C(=O)NCC(=O)N[C@@H](CCC(=O)O)C(=O)N1CCC[C@H]1C(=O)N1CCC[C@H]1C(=O)N1CCC[C@H]1C(=O)N[C@@H](CCC(=O)O)C(N)=O)[C@@H](C)CC)[C@@H](C)CC` [Example 444] (H-Y[Aib]QGT[αMePhe(2-F)]TSD[4Pal][αMeS]I[αMeL]LD[Orn]IAQ[Aib][Orn]FI[dE][αMeY]LIK([AEEA-γGlu-C18 diacid])GGPSSGEPPPE-NH2): the EC50 in assay [1] stood at 1.74 nM; in assay [2], 54.6 nM; in assay [3], 1280 nM; in assay [4], 0.0106 nM; in assay [5], 0.352 nM; in assay [6], 6.49 nM.

For the origin of these results see US20240270821A1, “GIP/GLP1/GCG TRI-RECEPTOR AGONISTS AND USES THEREOF” (priority 2023, published 2024).
